This is an account of results in ChEMBL document CHEMBL1201862, “PubChem BioAssay data set” (2004).

Structures are written as SMILES. The source made the active and inactive calls.

Assay [1] addresses T1, Short transient receptor potential channel 4 (Mus musculus, UniProt Q9QUQ5).
T1 sequence (Q9QUQ5 whole entry): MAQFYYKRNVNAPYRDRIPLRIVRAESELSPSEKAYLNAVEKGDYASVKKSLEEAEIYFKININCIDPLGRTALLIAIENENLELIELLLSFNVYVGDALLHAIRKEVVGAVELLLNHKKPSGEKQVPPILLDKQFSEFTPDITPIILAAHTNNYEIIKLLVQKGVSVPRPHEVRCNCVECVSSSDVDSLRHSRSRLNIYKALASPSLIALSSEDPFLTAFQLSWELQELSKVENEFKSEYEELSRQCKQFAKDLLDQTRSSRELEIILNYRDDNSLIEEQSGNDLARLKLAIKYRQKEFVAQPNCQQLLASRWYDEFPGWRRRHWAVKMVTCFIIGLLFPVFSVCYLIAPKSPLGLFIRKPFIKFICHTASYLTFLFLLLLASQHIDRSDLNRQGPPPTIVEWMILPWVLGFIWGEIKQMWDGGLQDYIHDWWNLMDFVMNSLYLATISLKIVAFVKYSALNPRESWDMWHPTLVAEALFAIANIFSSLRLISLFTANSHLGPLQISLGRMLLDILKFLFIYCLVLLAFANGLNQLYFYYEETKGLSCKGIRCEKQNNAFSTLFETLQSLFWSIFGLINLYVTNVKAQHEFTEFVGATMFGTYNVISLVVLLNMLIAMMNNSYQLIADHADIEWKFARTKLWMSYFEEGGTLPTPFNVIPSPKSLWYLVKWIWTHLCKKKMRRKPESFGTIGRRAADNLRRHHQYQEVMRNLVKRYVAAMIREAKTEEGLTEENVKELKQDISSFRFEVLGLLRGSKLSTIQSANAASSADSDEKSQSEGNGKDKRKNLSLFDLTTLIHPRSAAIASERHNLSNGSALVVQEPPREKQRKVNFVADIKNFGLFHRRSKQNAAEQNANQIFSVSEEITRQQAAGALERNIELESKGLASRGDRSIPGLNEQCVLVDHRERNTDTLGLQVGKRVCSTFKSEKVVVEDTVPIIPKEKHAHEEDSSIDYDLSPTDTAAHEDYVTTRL
Kind of assay: calcium entry via TRPC4 opening agents – cell-based, HEK293 TRPC4/mu-opioid, Fluo-4 calcium, dose response (AID 434937). It is filed as functional.

The target of assay [2] is Delta-type opioid receptor (Homo sapiens, UniProt P41143). Kind of assay: Counterscreen for agonists of heterodimerization of the mu 1 (OPRM1) and delta 1 (OPRD1) opioid receptors: Luminescence-based cell-based high throughput dose response assay to identify agonists of OPRD1 homodimerization. [Related pubchem assays (depositor defined):AID504326, AID504355, AID504692, AID504904, AID504905]. It is filed as functional. A general note: Counterscreens check selectivity or assay interference.

Another assay addresses Mu-type opioid receptor (Homo sapiens, UniProt P35372). Kind of assay: Counterscreen for agonists of heterodimerization of the mu 1 (OPRM1) and delta 1 (OPRD1) opioid receptors: Luminescence-based cell-based high throughput dose response assay to identify agonists of OPRM1 homodimerization. It is filed as functional.
Assay [3] concerns the target Opioid receptors; mu & delta (Homo sapiens, UniProt P41143+P35372). Briefly: OPRM1-OPRD1 heterodimer agonist potency – cell-based, luminescence, dose response (AID 588407). It is filed as functional.
Assay [4] deals with 5-hydroxytryptamine receptor 5A (Homo sapiens, UniProt P47898). Kind of assay: Counterscreen for agonists of OPRM1-OPRD1 heterodimerization: luminescence-based cell-based high throughput dose response assay to identify agonists of 5-hydroxytryptamine (serotonin) 5A receptor (HTR5A). [Related pubchem assays (depositor defined):AID504326, AID504355, AID504692, AID504904, AID504905]. In kind it is functional.

Assay [5] in a line: NIH-3T3 fibroblast cytotoxicity, dose response, cytotoxicity control, cell-based, fluorescence, Alamar Blue, secondary assay (AID 2327).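 Note: NIH-3T3 mouse fibroblasts cultured with fluconazole at 8 µg/mL.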 It is filed as functional. On the technique in general: Resazurin is reduced to fluorescent resorufin, in cell work by metabolically active cells.
A short description of assay [6]: fluconazole-exposed Candida albicans growth modulators – fluorescence, retest, confirmation (AID 2467). In kind it is functional, cell-based.
For assay [7], the target named is T2, Serine/threonine-protein phosphatase (Candida dubliniensis (strain CD36 / CBS 7987 / NCPF 3949 / NRRLY-17841) (Yeast), UniProt B9W6M3).
T2 sequence (B9W6M3 whole entry): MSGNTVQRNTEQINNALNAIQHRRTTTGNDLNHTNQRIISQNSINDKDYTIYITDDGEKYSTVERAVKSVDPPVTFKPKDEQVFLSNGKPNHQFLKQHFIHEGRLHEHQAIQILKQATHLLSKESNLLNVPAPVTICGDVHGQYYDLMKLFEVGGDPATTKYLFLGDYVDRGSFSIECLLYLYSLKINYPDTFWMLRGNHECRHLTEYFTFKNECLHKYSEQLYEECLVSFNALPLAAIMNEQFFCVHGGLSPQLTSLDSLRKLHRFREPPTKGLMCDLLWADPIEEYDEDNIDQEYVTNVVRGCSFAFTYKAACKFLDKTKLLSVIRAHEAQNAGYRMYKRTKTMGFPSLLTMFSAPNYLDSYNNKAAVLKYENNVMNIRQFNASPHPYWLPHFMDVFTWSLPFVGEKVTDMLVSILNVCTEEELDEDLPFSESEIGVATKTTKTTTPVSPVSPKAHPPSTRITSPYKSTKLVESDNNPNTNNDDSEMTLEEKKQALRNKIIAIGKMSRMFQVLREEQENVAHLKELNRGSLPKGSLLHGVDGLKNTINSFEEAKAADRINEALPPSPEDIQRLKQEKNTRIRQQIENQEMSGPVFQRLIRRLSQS
Kind of assay: blockers of CaCl2-induced CDRE-lacZ signaling – S. cerevisiae, luminescence, secondary, dose response (AID 2388).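 Note: yeast reporter cells carrying a calcineurin-responsive lacZ construct stimulated with calcium chloride; luminescent beta-galactosidase reporter signal in whole cells rather than isolated phosphatase activity; potency for inhibition where a drop in reporter signal means calcineurin blockade.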 It is filed as functional, cell-based.

The nature of assay [8]: Luminescence Cell-Based Dose Retest to Confirm Inhibitors of Cancer Stem Cells. [Related pubchem assays (depositor defined):AID2717, AID2721]. The following applies: Homo sapiens. In kind it is functional.
The target of assay [9] is Heat shock protein HSP 90-alpha (Homo sapiens, UniProt P07900). It is filed as functional, organism-based.
The target in assay [10] is T2, Serine/threonine-protein phosphatase. Kind of assay: Fluorescence Cell-Based Secondary Assay to Identify Inhibitors of Calcineurin. [Related pubchem assays (depositor defined):AID1979, AID2007]. It is filed as functional.
Assay [11] in a line: Luminescence Cell-Based/Microorganism Confirmation at Dose of Inhibitors of Trypanosoma cruzi Infection. [Related pubchem assays: 1885, 1968 ]. In kind it is functional.
Assay [12] in a line: Trypanosoma cruzi growth suppression in host cells – NIH3T3 host cells, beta-gal luminescence, confirmation (AID 2044).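 Note: intracellular parasites grown in NIH/3T3 mouse fibroblasts as host cells; luminescent beta-galactosidase reporter signal from transgenic T. cruzi replicating inside host cells; inhibitors lower the luminescence signal.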 It is filed as functional, cell-based.
A short description of assay [13]: Luminescence Cell-Based Secondary HTS screen to identify cytotoxic compounds of NIH3T3 cells. [Related pubchem assays: 1885, 1968 ]. In kind it is functional.
Assay [14] is described as follows: NIH3T3 cell viability loss – ATP luminescence, mouse fibroblasts, counter-screen, dose response (AID 2010).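 Note: cells exposed to compound for about 90 hours before reading.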 In kind it is functional, cell-based.
Assay [15] can be described thus: T. cruzi infection blockers in NIH3T3 cells – beta-gal luminescence, NIH3T3 host cells, confirmation (AID 2630). The following applies: Mus musculus. In kind it is functional, cell-based.
Assay [16] has as its target Dual specificity tyrosine-phosphorylation-regulated kinase 1A (Rattus norvegicus, UniProt Q63470). In kind it is biochemical, Homo sapiens.
For assay [17], the target named is T3, Rac GTPase-activating protein 1 (Homo sapiens, UniProt Q9H0H5).
T3 sequence (Q9H0H5 whole entry): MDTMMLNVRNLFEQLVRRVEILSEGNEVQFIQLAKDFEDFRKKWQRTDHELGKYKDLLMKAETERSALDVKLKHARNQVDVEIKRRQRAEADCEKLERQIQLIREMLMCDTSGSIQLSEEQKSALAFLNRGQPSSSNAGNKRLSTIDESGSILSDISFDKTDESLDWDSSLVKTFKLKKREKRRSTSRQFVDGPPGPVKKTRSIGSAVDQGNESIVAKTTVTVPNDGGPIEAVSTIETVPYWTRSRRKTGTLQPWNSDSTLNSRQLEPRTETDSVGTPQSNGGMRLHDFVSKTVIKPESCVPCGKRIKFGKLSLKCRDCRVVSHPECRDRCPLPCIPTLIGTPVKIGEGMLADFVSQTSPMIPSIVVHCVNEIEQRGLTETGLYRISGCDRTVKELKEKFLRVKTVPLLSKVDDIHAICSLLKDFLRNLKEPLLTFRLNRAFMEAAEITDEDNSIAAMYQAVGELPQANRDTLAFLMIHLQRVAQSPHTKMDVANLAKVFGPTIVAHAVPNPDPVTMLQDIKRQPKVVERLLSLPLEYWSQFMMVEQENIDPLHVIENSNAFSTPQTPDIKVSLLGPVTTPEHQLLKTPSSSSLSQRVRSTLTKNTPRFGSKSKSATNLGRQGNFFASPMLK
Briefly: blockers of MgcRacGAP-driven Rac1 GTP hydrolysis – biochemical, ADP Hunter fluorescence, primary and confirmatory, confirmation (AID 624330). In kind it is functional.

Assay [18] relates to Streptococcus sp. 'group A'. Briefly: Streptococcus pyogenes SK(-)GAS viability under kanamycin – luminescence, BacTiterGlo, confirmation, counter-screen for streptokinase expression inhibitor project, dose response (AID 1900). It is filed as functional, organism-based.
Another assay relates to Streptococcus. Kind of assay: GAS UMAA2166 growth inhibition – luminescence, BacTiterGlo, counter-screen for streptokinase expression inhibitor project, dose response (AID 1915).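 Note: potency for reduction of bacterial viability or growth.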 It is filed as functional, organism-based.
Assay [19] is described as follows: viability loss of HMLE_sh_eGFP cells – cell-based, luminescence, counter-screen for HMLE_sh_ECad selective toxicity project, dose response (AID 463074).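 Note: HMLE human mammary epithelial cells expressing control shRNA against eGFP.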 In kind it is functional, Homo sapiens.
In assay [20] the target is Dual specificity protein kinase CLK1 (Homo sapiens, UniProt P49759). Kind of assay: inhibition of human CLK1 activity – biochemical, cherry-picked samples, selectivity assay for Dyrk1A inhibitor project, dose response (AID 588811).
Dual specificity protein kinase CLK1, sequence (P49759 whole entry): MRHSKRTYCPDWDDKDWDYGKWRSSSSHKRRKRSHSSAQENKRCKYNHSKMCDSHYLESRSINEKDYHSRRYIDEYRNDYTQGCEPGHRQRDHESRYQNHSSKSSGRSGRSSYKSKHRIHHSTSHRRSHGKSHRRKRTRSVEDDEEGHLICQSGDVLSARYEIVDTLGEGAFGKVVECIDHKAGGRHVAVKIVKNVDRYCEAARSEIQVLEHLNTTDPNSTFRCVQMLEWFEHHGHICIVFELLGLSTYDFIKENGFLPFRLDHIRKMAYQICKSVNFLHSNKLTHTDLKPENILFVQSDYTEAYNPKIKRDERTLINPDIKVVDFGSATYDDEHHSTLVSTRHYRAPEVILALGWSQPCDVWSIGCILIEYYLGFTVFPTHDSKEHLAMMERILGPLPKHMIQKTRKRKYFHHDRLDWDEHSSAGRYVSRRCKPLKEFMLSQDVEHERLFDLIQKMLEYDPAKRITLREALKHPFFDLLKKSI

Mu-type opioid receptor, sequence (P35372 whole entry): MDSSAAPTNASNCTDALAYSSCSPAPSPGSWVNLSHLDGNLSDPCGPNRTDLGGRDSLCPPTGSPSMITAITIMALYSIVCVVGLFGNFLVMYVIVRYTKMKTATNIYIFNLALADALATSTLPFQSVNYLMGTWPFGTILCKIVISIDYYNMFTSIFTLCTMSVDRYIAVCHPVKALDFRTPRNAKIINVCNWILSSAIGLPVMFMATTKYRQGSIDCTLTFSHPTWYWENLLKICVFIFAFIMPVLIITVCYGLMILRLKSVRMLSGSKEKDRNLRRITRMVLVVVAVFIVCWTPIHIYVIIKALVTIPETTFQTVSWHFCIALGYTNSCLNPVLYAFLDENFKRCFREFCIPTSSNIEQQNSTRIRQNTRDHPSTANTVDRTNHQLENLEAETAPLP
5-hydroxytryptamine receptor 5A, sequence (P47898 whole entry): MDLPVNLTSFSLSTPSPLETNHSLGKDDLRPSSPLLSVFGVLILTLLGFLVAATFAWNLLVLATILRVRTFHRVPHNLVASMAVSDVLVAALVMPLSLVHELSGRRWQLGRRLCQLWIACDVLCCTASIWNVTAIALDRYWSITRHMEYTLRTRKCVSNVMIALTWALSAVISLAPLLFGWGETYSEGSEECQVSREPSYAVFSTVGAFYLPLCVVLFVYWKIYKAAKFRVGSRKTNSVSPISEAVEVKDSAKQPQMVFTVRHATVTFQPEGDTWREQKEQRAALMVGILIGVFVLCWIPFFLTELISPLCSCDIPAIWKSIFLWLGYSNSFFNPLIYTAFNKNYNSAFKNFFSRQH
Delta-type opioid receptor, sequence (P41143 whole entry): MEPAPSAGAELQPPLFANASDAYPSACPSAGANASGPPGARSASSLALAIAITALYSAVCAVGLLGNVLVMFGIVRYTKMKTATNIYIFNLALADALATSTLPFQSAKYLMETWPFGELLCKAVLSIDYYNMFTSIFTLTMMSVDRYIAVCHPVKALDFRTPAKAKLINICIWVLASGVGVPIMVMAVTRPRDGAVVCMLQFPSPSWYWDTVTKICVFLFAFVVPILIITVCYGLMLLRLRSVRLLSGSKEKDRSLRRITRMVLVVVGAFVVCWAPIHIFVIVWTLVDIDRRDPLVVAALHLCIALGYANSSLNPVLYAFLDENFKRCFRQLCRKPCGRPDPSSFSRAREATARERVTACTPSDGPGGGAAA

As for `COc1ccc(C2Nc3ccccc3C(=O)N2Cc2ccco2)cc1COc1ccc(NC(C)=O)cc1` (centres undefined), the EC50 – broadly, the concentration at which the effect is half-maximal – is 149 nM (active) in assay [1]; 17.3 nM (active) in [2]; > 92.5 µM (inactive) on Mu-type opioid receptor; greater than 0.01406 µM in assay [3]; > 92.5 µM (inactive) in assay [4].
For the compound `O=C(NNC1=C(C(=O)C(F)(F)F)CCC1)c1ccc(Cl)cc1`, the EC50 in assay [5] was 23.5 µM (active); in assay [6], 126 nM (active); in assay [7], > 180 µM (inactive); in assay [10], 13.5 µM (active). In addition, the results for the AC50 in [8] and in assay [9] were 2.75 µM (active) and 3.37 µM (active), respectively.
As for `CCn1ncc(CN2CCCC(C(=O)c3cccc(OC(C)C)c3)C2)c1C` (centres undefined), the EC50 in assay [11] was 62 nM (active); in assay [12], < 100 nM (active); in [13], > 195 µM (not active); in assay [14], > 60 µM (inconclusive); in [15], 62 nM (active); in “cells”, 32 nM (active).
For the compound `Oc1ccc(-c2csc(NCc3ccco3)n2)cc1`, the AC50 (in general, the concentration at which the activity in the assay is half-maximal) in assay [16] is 6.71 µM (active). For the same compound, in assay [17], the IC50 (in general, the concentration that inhibits the measured activity by half) is 22.1 µM (active).
For the compound `CCN(c1ccccc1)S(=O)(=O)c1ccc(C(=O)Nc2nnc(-c3ccco3)o2)cc1`, the EC50 was 1.61 µM (active) in assay [18] and 5.63 µM (active) in the assay with Streptococcus. The figures for the AC50 in [8] and in assay [19] were 2.63 µM (active) and 32.4 µM (active), respectively.
Turning to `Cc1ccsc1CN(C)c1ncnc2ccc(-c3ccc(CO)o3)cc12`, the AC50 in assay [20] is 16.1 nM (active).
